Test results reported in paper PMC5688156, “The natural product carolacton inhibits folate-dependent C1 metabolism by targeting FolD/MTHFD” (Nature Communications, 2017).

How the values were obtained:
ecFolD G8S = biological target: T1, ecFolD G8S (Escherichia coli, UniProt P24186, G8S); test: ecFolD G8S mutant dehydrogenase (DH) enzyme assay; assay type: biochemical, E. coli
T1 construct: His-tag (TEV-cleavable, vector pHis-TEV); made in house; host or cells: E. coli BL21 (DE3)
Procedure: (6R,S)-5,10-Methylene-5,6,7,8-tetrahydrofolic acid ((6R,S)-5,10-CH2-THF) calcium salt and (6R,S)-5,10-Methenyl-5,6,7,8-tetrahydrofolic acid ((6R,S)-5,10-CH=THF) chloride were purchased from Schircks Laboratories (Bauma, Switzerland) and used as substrates for FolD dehydrogenase and cyclohydrolase enzyme assays, respectively. Only the R-isomer, which accounts for 50% of (6R,S)-5,10-CH2-THF and (6R,S)-5,10-CH=THF, respectively, is used by the enzyme. (6R,S)-5,10-CH2-THF was dissolved in N2-spargeled basic buffer (50 mM Tris-HCl (pH 8.0), 100 mM β-mercaptoethanol) as described by Varshney et al.[25]. (6R,S)-5,10-CH=THF was dissolved in DMSO as a 100 mM stock solution.
Because FolD is a bifunctional enzyme, dehydrogenase and cyclohydrolase activities were determined for FolD enzyme kinetics, respectively. The dehydrogenase activity of FolD was assayed for its substrate 5,10-CH2-THF and cofactor NADP^+ (in the case of MTHFD2, NAD^+ was used as the cofactor) based on monitoring the formation of 5,10-CH=THF, while the cyclohydrolase activity of FolD was determined for its substrate 5,10-CH=THF by monitoring the hydrolysis of […]. The enzyme kinetics for the dehydrogenase activity of all FolDs except hsMTHFD1_DC were determined at 30 °C in 50 mM Tris-HCl (pH 7.5), 30 mM β-mercaptoethanol. […]

hsMTHFD2 = biological target: T2, hsMTHFD2 (Homo sapiens, UniProt P13995); test: SPR binding to hsMTHFD2
T2 construct: His-tag (vector pHis-TEV) (cleaved yes); made in house; host or cells: E. coli BL21 (DE3)
T2 sequence (P13995 36-350): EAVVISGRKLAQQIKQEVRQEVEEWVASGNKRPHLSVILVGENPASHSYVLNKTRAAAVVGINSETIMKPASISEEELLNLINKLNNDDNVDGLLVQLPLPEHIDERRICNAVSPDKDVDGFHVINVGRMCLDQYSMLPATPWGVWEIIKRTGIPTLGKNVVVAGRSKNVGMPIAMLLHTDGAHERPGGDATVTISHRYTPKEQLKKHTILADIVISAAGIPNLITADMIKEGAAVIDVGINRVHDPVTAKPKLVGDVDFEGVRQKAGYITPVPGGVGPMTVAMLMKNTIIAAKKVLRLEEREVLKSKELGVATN
Procedure: All surface plasmon resonance (SPR) experiments described in this study were performed on a Biacore X100 system. Different FolDs with or without His-tag were coupled on CM5 sensor chips (GE Healthcare) by the amine coupling method using a kit from GE Healthcare Life Sciences (Freiburg, Germany). A pH scouting process was performed before protein immobilization to test the most appropriate buffer and the protein concentration for protein coupling. Finally, 20 μg/mL of ecFolD in 10 mM maleate buffer (pH 6.8), 30 μg/mL of ecFolD Q98H in 10 mM maleate buffer (pH 6.3), 40 μg/mL of ecFolD K54N in 10 mM maleate buffer (pH 5.8), 20 μg/mL of spFolD in 10 mM maleate buffer (pH 6.0) and 15 μg/mL of MTHFD2 (His-tag cleaved) in 10 mM maleate buffer (pH 6.8) were used for coupling. In the protein immobilization procedure, the contact time was calculated based on the pH scouting results to achieve ~3000–5000 relative resonance units (RU). The buffer used in the SPR assays was 1× HBS-P buffer (10 mM HEPES pH 7.4, 150 mM NaCl, 0.05% Tween 20). The 1 mM stock solution of carolacton was prepared in 1× HBS-P buffer and diluted to different concentration ranges by two-fold serial dilution. In the SPR assay, the association time was 180 s and the dissociation time was 600 s. Data analysis was performed using the Biacore evaluation software. […]

CO[C@H](CC(=O)O)[C@@H](C)C(=O)[C@H](C)/C=C(\C)[C@H]1OC(=O)[C@H](O)[C@H](O)/C=C/[C@H](C)CCC[C@@H]1C [carolacton]
IC50 (ecFolD G8S): 86.5 nM | IC80 (ecFolD G8S; read-out: IC80, carolacton inhibition on DH activity): 737 nM | koff (hsMTHFD2): 0.0222 s⁻¹ | Kd (hsMTHFD2; 1:1 interaction model fit of association and dissociation signals): 19 nM
